Experimental data taken from article PMC6811539, “Minute-scale persistence of a GPCR conformation state triggered by non-cognate G protein interactions primes signaling” (Nature Communications, 2019).

Columns and labels:
[1] = target: T1, β2-AR-mCherry, endogenous Gs (Homo sapiens, UniProt P07550); assay: activation of endogenous Gs (BODIPY-FL-GTPγS), native membranes expressing β2-AR-mCherry; type: biochemical
T1 construct: expressed in transfected cells; host or cells: native (not urea-stripped) membranes of HEK293T cells transiently transfected with β2-AR-mCherry
Method: Membranes were prepared following a published protocol[56] from HEK293T cells transiently transfected with the appropriate DNA (β2-AR-mCherry, β2-mCerulean, […]-mCherry, β2-AR-ICL3 or β2-AR-Sp). Cells were collected in culture medium and washed twice with PBS by centrifugation (300 × g, 3 min, ambient temperature). […] Cells in solution A were lysed gently (30 strokes) in a chilled Dounce homogenizer in the presence of 1.5 μg/mL aprotinin, 1.5 μg/mL leupeptin, 5 μg/mL phenylmethylsulfonyl fluoride (PMSF) and 1 mM dithiothreitol (DTT). Nuclei and intact cells were eliminated by centrifugation at 1000 × g, 5 min, 4 °C. All subsequent centrifugation steps were performed in a TLA100.4 rotor at 135,000 × g, 30 min, 4 °C. […] HEK293T cells in 15 cm dishes were transiently transfected with β2-AR-mCherry or […]-mCherry plasmid as described in the section on “Cells, Cell culture and Transfections,” earlier. Membranes were isolated and treated with urea as detailed (Membrane preparations). Urea treatment denatures and inactivates the endogenous G proteins, allowing the reconstitution of desired combinations of Gα, and βγ subunits and specific C terminus peptides. Reconstitution reactions were assembled on ice. […] The agonist-stimulated change in fluorescence counts was calculated by subtracting the early stimulation spectra from the post-stimulation spectra. Samples treated with BODIPY buffer (no agonist) were processed similarly, to determine the increase in BODIPY fluorescence without agonist stimulation, which represented nonspecific and basal incorporation of the BODIPY in the reaction time. Specific, agonist-induced change in BODIPY fluorescence was calculated by subtracting the increase in buffer-treated samples from the agonist-mediated increase. This change in fluorescence (increase) provided a measure of BODIPY-FL-GTPγS incorporation into the Gα-subunit. Each reaction provided three agonist and three mock readings. […] BODIPY incorporation was monitored as above. […] The experiment was repeated with mock buffer and agonist-specific G-protein activation was calculated.

[2] = extent of photocleavage of PC-Qp by MALDI-MS; type: physicochemical; design: Conc. App: unit: μM; conditions: for concentration of full-length PC-Qp: 50 μM input, native membranes, MALDI-MS, mean of three experiments; for Conc. App: PC-Qp full length; for PC-Qp full length (fraction, MALDI-MS): plus UV (350 nm, 2 min)
Method: Native membranes were prepared from cells expressing β2-mCer and were stored in sucrose-supplemented buffer A as described above (Membrane preparations). […]. Both samples were centrifuged 100,000 × g, 5 min, 4 °C to sediment the membrane. Supernatants were stored on ice for analysis by MS. Control samples containing 50 μM peptide in the buffer were also prepared.
Prior to matrix-assisted laser desorption and ionization time-of-flight MS (MALDI-TOF MS) analysis, the samples were desalted using C18 ZipTips (Millipore Corporation, Billerica, MA). The manufacturer’s standard protocol for peptide clean-up was followed. After elution from the ZipTip, 1 μL of each sample was spotted on a MALDI-TOF 384 spot stainless-steel target (Bruker Daltonics, Billerica, MA) and mixed with 1 μl of α-cyano-4-hydroxy-cinnamic acid (α-CHCA) matrix (15 mg/ml α-CHCA in 50% acetonitrile). Each spot was allowed to dry at room temperature. The target was placed in a Bruker Autoflex Speed MALDI-TOF mass spectrometer (Bruker Daltonics, Billerica, MA) equipped with a Nd-YAG 355 nm pulsed laser. The data were collected in reflectron mode, positive polarity, with an accelerating potential of 19 kV. Each spectrum was the accumulation of 4000 laser shots with complete spot raster of the laser during data collection. External calibration was performed using 0.5 μl α-CHCA and 0.5 μl of peptide standard (part# 206195, Bruker Daltonics, Billerica, MA) with Angiotensin II (monoisotopic mass [MH^+ ] 1046.5418), Angiotensin I (monoisotopic mass [MH^+ ] 1296.6848), SubstanceP (monoisotopic mass [MH^+] 1347.7354), Bombesin (monoisotopic mass [MH^+] 1619.8223), ACTH clip 1–17 (monoisotopic mass [MH^+] 2093.0862), ACTH clip 18–39 (monoisotopic mass [MH^+] 2465.1983), and Somatostatin 28 (monoisotopic mass [MH^+] 3147.4710). The Bruker data files were converted to mzXML files using MSConvertGUI tool in ProteoWizard open-source software. The mzXML files were viewed and analyzed with mMass v5.5 open-source software.

[3] = +UV (second block), replicate #1
[4] = +UV (second block), replicate #2
[5] = +UV (second block), replicate #3
[6] = −UV (first block), replicate #1
[7] = −UV (first block), replicate #2
[8] = −UV (first block), replicate #3

DTENIRFVFAAVKDTILQLNLKE(Anp)NLV [PC-Qp, photocleavable Qp, Y356 replaced by Anp]
primed G-protein activation response after UV before mixing ([1]; PC-Qp exposed to UV before mixing with other reactants): lost
persistence of enhanced G-protein activation after photocleavage ([1]; PC-Qp, UV after addition to membranes): 120 s
increase in G-protein activation in response to fenoterol ([1]; fenoterol 10 μM, 3 min, Qp 30 μM or PC-Qp 50 μM, no UV): ~ 7 fold
concentration of full-length PC-Qp ([2]; +UV (350 nm, 2 min)): 4.582 µM
% cleavage [2, 3]: 90.1408%
% uncleaved [2, 3]: 9.859%
% cleavage [2, 4]: 90.4762%
% uncleaved [2, 4]: 9.524%
% cleavage [2, 5]: 91.8919%
% uncleaved [2, 5]: 8.108%
Conc. App [2, 3]: 4.93
Conc. App [2, 4]: 4.7619
Conc. App [2, 5]: 4.054
Conc. App [2, 6]: 33.3333
Conc. App [2, 7]: 37.7551
Conc. App [2, 8]: 30.7692
PC-Qp full length (fraction, MALDI-MS) ([2]; replicate 1): 0.098
PC-Qp full length (fraction, MALDI-MS) ([2]; replicate 2): 0.095
PC-Qp full length (fraction, MALDI-MS) ([2]; replicate 3): 0.081
% cleavage [2, 6]: 33.3333%
% uncleaved [2, 6]: 66.6667%
% cleavage [2, 7]: 24.4898%
% uncleaved [2, 7]: 75.5102%
% cleavage [2, 8]: 38.4615%
% uncleaved [2, 8]: 61.5385%
concentration of full-length PC-Qp ([2]; −UV): 33.9526 µM
